Read-outs that look alike come from different tables or passages of the source.
Columns and labels:
Type in all cases: binding
[1] = molecular target: T1, serotonin reuptake receptors (5HT) / Serotonin uptake sites (transporters) (Rattus norvegicus, UniProt P31652); experiment: Affinity for serotonin reuptake sites, [3H]-paroxetine radioligand, rat cerebral cortex; conditions: Rat brain; read-out: K1 values, Serotonin uptake sites (transporters)
T1 construct: from tissue; host or cells: rat cerebral cortex
Source text: (§1) The pharmacological activity of the compounds of general formula (I) was determnined-using well-established in vitro and in vivo pharmacological processes.

[2] = molecular target: T2, Dopamine uptake sites (transporters) (Rattus norvegicus, UniProt P23977); experiment: Affinity for dopamine uptake sites (transporters), rat brain; conditions: read-out: K1 values, Dopamine uptake sites (transporters)
T2 construct: Uptake sites (transporters); Rat brain; from tissue; host or cells: rat brain

[3] = molecular target: noradrenaline (NA) reuptake receptors / Noradrenaline uptake sites (transporters) (Rattus norvegicus, UniProt Q63380); experiment: Affinity for noradrenaline reuptake sites, [3H]-nisoxetine radioligand, rat cerebral cortex; conditions: Rat brain, read-out: K1 values, Noradrenaline uptake sites (transporters)
Source text: as §1

T2 sequence (P23977 whole entry): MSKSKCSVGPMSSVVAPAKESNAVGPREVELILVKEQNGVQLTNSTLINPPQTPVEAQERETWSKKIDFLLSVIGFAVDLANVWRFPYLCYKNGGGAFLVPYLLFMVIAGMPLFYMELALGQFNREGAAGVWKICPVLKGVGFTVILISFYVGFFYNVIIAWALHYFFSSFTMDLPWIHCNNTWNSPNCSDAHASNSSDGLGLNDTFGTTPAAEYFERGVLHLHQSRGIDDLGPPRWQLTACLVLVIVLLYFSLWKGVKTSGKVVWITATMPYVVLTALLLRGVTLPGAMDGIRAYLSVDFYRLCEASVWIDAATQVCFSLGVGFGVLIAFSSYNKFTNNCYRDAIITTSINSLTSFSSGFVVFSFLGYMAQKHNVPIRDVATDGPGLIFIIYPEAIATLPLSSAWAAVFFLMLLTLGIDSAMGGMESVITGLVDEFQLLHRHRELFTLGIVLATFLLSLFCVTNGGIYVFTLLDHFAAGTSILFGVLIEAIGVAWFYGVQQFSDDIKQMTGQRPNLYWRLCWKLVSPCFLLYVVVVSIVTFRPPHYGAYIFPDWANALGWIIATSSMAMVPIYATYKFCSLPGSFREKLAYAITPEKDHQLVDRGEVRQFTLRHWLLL
Sequence of noradrenaline (NA) reuptake receptors / Noradrenaline uptake sites (transporters) (Q63380 1-617): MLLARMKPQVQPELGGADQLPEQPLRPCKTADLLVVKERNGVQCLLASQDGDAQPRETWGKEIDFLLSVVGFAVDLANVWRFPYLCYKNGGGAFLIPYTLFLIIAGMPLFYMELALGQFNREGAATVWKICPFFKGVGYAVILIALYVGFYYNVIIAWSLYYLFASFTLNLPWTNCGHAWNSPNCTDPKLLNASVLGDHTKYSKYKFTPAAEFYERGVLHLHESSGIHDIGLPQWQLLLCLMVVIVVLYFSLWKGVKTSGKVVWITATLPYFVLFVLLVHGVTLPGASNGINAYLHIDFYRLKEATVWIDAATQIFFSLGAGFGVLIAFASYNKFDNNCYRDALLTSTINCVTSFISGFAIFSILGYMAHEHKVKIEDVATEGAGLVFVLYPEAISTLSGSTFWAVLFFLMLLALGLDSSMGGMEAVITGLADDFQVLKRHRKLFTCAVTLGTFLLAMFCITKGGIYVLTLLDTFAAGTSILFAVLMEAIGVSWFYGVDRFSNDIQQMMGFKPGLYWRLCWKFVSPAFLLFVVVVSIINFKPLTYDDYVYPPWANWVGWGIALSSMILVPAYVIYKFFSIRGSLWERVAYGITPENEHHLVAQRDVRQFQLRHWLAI
T1 sequence (P31652 whole entry): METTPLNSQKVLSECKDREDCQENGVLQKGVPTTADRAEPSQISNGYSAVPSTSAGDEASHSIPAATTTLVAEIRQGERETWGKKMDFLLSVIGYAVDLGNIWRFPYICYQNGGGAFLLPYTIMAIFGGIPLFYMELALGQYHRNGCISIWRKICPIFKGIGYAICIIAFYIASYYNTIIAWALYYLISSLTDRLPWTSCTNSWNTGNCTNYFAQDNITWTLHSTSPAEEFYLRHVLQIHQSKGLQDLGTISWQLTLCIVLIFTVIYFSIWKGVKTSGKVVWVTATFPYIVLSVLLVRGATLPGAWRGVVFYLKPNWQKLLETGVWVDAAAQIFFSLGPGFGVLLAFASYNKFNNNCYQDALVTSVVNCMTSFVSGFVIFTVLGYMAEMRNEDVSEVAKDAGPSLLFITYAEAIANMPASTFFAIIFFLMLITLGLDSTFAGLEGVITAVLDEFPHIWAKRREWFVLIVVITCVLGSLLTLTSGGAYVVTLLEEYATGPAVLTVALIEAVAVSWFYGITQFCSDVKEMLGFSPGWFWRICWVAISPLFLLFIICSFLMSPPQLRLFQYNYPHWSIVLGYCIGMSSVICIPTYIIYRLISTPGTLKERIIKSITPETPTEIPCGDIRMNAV

O=[N+]([O-])c1ccc(O[C@H](c2ccccc2)C2CCNCC2)cc1 [Compound F-98603-PD] showed a Ki [1] of 0.00063 µM, a Ki ([2]; bounds given in μM) of over 10 µM and a Ki ([3]; bounds given in μM) of over 1 µM.

Work on FC(F)(F)c1ccc(O[C@H](c2ccccc2)C2CCNCC2)cc1 [Compound F-98408-TA] yielded a Ki [1] of 0.0348 µM, a Ki ([2]; bounds given in μM) of over 1 µM and a Ki ([3]; bounds given in μM) of over 10 µM.

For Fc1cccc([C@@H](Oc2ccccc2F)C2CCNCC2)c1 [Compound F-98925-PD], the Ki [1] was 0.0276 µM, the Ki [2] was 0.377 µM and the Ki [3] was 0.0481 µM.

In the case of Fc1cccc(O[C@@H](c2cccc(F)c2)C2CCNCC2)c1 [Compound F-98829-PD], the Ki [1] is reported as 0.00283 µM, the Ki ([2]; bounds given in μM) is reported as over 1 µM and the Ki [3] is reported as 0.0175 µM.

For Fc1cccc(O[C@@H](c2ccccc2)C2CCNCC2)c1 [Compound F-98212-TA], the Ki ([2]; bounds given in μM) was over 1 µM and the Ki [3] was 0.107 µM.

Compound O=[N+]([O-])c1ccc(OC(c2ccccc2)C2CCNCC2)cc1 (stereo not drawn) [Compound F-98610-PD] has a Ki [1] of 0.0151 µM, a Ki ([2]; bounds given in μM) of over 1 µM and a Ki ([3]; bounds given in μM) of over 1 µM.

With Fc1ccc(O[C@H](c2ccccc2)C2CCNCC2)cc1 [Compound F-97815-TA] the Ki [1] was 0.0459 µM, the Ki [2] was 0.253 µM and the Ki [3] was 1.45 µM.

With Fc1ccccc1O[C@@H](c1ccccc1)C1CCNCC1 [Compound F-98718-PD] the Ki [1] was 0.0285 µM, the Ki [2] was 0.52 µM and the Ki [3] was 0.0414 µM.

For Clc1cccc(O[C@@H](c2ccccc2)C2CCNCC2)c1 [Compound F-98616-TA], the Ki ([2]; bounds given in μM) was over 1 µM and the Ki [3] was 0.0558 µM.

For Fc1ccc(O[C@@H](c2ccccc2)C2CCNCC2)cc1 [Compound F-97814-TA], the Ki [1] was 0.00045 µM and the Ki [2] was 0.821 µM.

With N#Cc1cccc(O[C@H](c2ccccc2)C2CCNCC2)c1 [Compound F-98715-TA] the Ki [1] was 0.00168 µM, the Ki [2] was 0.11 µM and the Ki [3] was 0.0869 µM.

Compound N#Cc1cccc(OC(c2ccccc2)C2CCNCC2)c1 (stereo not drawn) [Compound F-98716-TA] has a Ki [1] of 0.00143 µM, a Ki ([2]; bounds given in μM) of over 1 µM and a Ki [3] of 0.18 µM.

Compound Fc1cccc(O[C@H](c2cccc(F)c2)C2CCNCC2)c1 [Compound F-98828-PD] has a Ki [1] of 0.00999 µM, a Ki [2] of 0.113 µM and a Ki [3] of 0.128 µM.

With Fc1cc(F)cc(O[C@H](c2ccccc2)C2CCNCC2)c1 [Compound F-98814-TA] the Ki [1] was 0.0014 µM, the Ki ([2]; bounds given in μM) was over 1 µM and the Ki [3] was 0.0248 µM.

For FC(F)(F)c1ccc(OC(c2ccccc2)C2CCNCC2)cc1 (stereo not drawn) [Compound F-98404-TA], the Ki [1] was 0.0149 µM, the Ki ([2]; bounds given in μM) was over 1 µM and the Ki ([3]; bounds given in μM) was over 10 µM.

Work on Clc1cccc(O[C@H](c2ccccc2)C2CCNCC2)c1 [Compound F-98620-TA] yielded a Ki ([2]; bounds given in μM) of over 1 µM.

For Fc1ccccc1O[C@H](c1ccccc1)C1CCNCC1 [Compound F-98607-PD], the Ki [1] was 0.0042 µM, the Ki ([2]; bounds given in μM) was over 1 µM and the Ki [3] was 0.0225 µM.

For Fc1cccc([C@H](Oc2ccccc2F)C2CCNCC2)c1 [Compound F-98917-PD], the Ki [1] was 0.0043 µM, the Ki ([2]; bounds given in μM) was over 1 µM and the Ki [3] was 0.0191 µM.

In the case of Fc1cc(F)cc(O[C@@H](c2ccccc2)C2CCNCC2)c1 [Compound F-98822-TA], the Ki [1] is reported as 0.00709 µM, the Ki ([2]; bounds given in μM) is reported as over 1 µM and the Ki [3] is reported as 0.386 µM.

Fc1cccc(O[C@H](c2ccccc2)C2CCNCC2)c1 [Compound F-98214-TA] gave a Ki [2] of 0.461 µM and a Ki [3] of 0.0135 µM.

From patent publication US6518284B2, “4-substituted piperidines” (Faes, Fabrica Espanola de Productos Quimicos Y …, priority 1999, dated 2003)
